# Measurements from patent US11492325B2, “Compounds as inhibitors of sodium channels” (Human BioMolecular Research Institute, priority 2016, dated 2022).
# What was measured:
# [1] = Metabolic stability in human liver microsomes; assay type: in vitro ADME; settings: human, microsomes
# Method: (§1) A typical incubation contained rat, mouse, dog or human liver microsomes (0.4-0.5 mg of protein), 100 mM potassium phosphate buffer (pH7.4), 50 μM test compound, an NADPH-generating system consisting of 0.5 mM NADP^+, 0.5 mM glucose-6-phosphate, 1 IU/mL glucose-6-phosphate dehydrogenase, 1 mg/mL diethylenetriaminepentaaceticacid (DETAPAC), and 3 mM MgCl2 in a final incubation volume of 0.25 mL. […] After centrifugation at 3000 rpm for 5 min, the organic fraction was collected, the solvent was removed with a stream of argon and the residue was reconstituted in 125 μL of MeOH and 125 μL H2O, mixed thoroughly, centrifuged at 13,000 rpm for 5 min and analyzed by high performance liquid chromatography. Samples were run on a Hitachi D-7000 HPLC system using a L-7100 analytical pump, L-7400 UV-Visible variable wavelength detector, and L-7600 automatic sample injector. […] Disappearance of the analyte was monitored over time. A plot of the area under the curve for the normalized analyte versus time afforded the half-life values and kapp.
# [2] = Metabolism in human hepatic S9; settings: human; for Liver S-9 T1/2: s9; for Liver S-9, remaining after 1 hr: s9, 1 h
# Method: as §1
# Microsomes contain CYPs and FMO metabolic enzymes. S9 contains soluble enzymes (i.e., aldehyde oxidase, MAO, etc.).
# Male BALBc mice = settings: mice, 100 mg/kg; for behavioral effects at 100 mg/kg: enantiomers
# Excerpt: Male BALBc mice (20-22 g) were used throughout these studies. The animals were maintained in a temperature-controlled room with 12-hr periods of light and darkness and had continuous access to water and animal food. […] Groups contained 2-4 animals.
# [3] = biological target: Nav1.5 sodium channel transfected into HEK293 cells (Homo sapiens, UniProt Q14524); experiment: Patch clamp electrophysiology, peak (INaP) and late (INaL) sodium current in transfected cells
# Method: (§2) This provided data to investigate the physiology and action of target compounds on individual ion channels. The assay used standardized protocols for culturing and conducting conventional whole cell recording that have been previously developed for both current and voltage-clamp to characterize action potentials using transfected cells. Briefly, the Nav1.5 sodium channel was transfected into HEK293 cells. […] Briefly, cells were plated on 0.1% gelatin-coated 35-mm plastic Petri dishes. […] Data was reported as IC50 values±STD (Table 1).
# [4] = biological target: Nav1.5 sodium channel, peak current (INaP) (Homo sapiens, UniProt Q14524, form not given); experiment: in vitro; settings: Peak Na+ (INaP) IC50
# Method: as §2
# [5] = biological target: hERG potassium channel (IKr) (Homo sapiens, UniProt Q12809); experiment: Automated patch clamp, hERG (IKr) expressed in CHO cells; settings: for IC50: hERG (IKr) IC50, CHO cells
# [6] = system: cardiomyocytes derived from hiPSCs from a LQTS3 patient; experiment: cells; settings: Homo sapiens, Cardiomyocyte, read-out: LQT-IC50 (uM)-Shortening
# [7] = system: normal human induced pluripotent stem cell (hiPSC) cardiomyocyte; settings: normal hiPSC cardiomyocytes; for WT-Fold Prolongation: APD
# [8] = system: cardiomyocytes derived from hiPSCs from a LQTS3 patient; settings: LQT3 cardiomyocytes
# [9] = ratio peak/late IC50, Example 2
# Sequence of hERG potassium channel (IKr) (Q12809 whole entry): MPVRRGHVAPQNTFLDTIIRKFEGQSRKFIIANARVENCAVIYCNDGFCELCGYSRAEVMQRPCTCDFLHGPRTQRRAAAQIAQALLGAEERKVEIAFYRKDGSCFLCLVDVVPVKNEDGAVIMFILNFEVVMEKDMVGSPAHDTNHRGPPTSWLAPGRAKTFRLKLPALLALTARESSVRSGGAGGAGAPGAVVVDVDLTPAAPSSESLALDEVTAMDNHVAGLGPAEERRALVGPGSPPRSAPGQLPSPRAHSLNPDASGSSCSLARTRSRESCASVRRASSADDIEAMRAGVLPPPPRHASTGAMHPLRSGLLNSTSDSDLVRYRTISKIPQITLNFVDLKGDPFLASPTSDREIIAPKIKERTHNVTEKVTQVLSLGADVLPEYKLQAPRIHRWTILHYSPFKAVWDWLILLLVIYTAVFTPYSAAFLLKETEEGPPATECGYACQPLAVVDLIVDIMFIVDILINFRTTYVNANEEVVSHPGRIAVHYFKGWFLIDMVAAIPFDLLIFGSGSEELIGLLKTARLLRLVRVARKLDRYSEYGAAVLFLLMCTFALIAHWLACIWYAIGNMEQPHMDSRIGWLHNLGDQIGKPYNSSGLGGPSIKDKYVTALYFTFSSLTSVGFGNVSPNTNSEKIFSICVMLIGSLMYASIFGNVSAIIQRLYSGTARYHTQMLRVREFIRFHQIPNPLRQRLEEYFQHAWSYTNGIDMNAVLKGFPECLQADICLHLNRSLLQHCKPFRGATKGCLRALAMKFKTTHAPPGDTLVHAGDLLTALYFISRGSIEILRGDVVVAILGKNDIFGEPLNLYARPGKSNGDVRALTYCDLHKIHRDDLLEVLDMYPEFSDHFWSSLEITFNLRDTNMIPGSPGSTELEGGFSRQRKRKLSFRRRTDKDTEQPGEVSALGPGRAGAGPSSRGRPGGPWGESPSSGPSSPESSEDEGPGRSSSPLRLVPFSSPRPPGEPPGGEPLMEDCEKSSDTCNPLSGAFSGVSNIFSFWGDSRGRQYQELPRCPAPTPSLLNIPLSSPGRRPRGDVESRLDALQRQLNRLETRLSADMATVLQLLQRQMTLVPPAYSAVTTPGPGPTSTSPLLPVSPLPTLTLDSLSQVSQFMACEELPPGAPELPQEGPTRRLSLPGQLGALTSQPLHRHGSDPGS
Compound,DNap/NaL ([3]; ratio peak IC50/late IC50),IC50 [4] [µM],IC50 [5] [µM],DKr/NaL ([5]; ratio hERG IC50/late Na IC50),DNaP/Kr ([5]; ratio peak Na IC50/hERG IC50),IC50 [6] [µM],IC50 [3] [µM],WT-Fold Prolongation [7],Cessation of Beating [7],LQT-Cessation Dose [8],LQT-Fold Shortening [8],further results
Cl.NC(COc1cc(C(F)(F)F)cc(C(F)(F)F)c1)c1ccccc1 (stereo in doubt) [(S)-78],,,,,,,,,,,,"Liver Microsomes, remaining after 1 hr ([1]; 1 h): >95% after 1 hr; Liver S-9 T1/2 [2]: 17.33 h; Behavior Effect (S)-enantiomer (Male BALBc mice): 2/4 shaking; behavioral effects at 100 mg/kg (Male BALBc mice): Minor lethargy"
Cc1ccccc1OCC(N)c1ccccc1.Cl (stereo in doubt) [(S)-25],,,,,,,,,,,,"Liver S-9, remaining after 1 hr [2]: >95% after 1 hr"
Cc1cc(C)cc(OCC(N)C2CCCCC2)c1.Cl (stereo not drawn) [Compound 89],15.2,24.3,4.9,3.1,5.0,,,,,,,"DNap/NaL [3, 9]: 15.3; IC50 ([5]; Example 2): 4.9 µM; DKr/NaL ([5]; ratio, Example 2): 3.1; DNaP/Kr ([5]; ratio, Example 2): 5.0"
Cc1cc(C)cc(OCC(C)N)c1 (stereo not drawn) [Compound 55],9.1,154,49,2.9,3.1,4.45,17,1.159,None,200 µM,1.232,
Cc1cc(C)cc(OCC(N)c2ccccc2)c1.Cl (stereo in doubt) [(R)-70],,,,,,,,,,,,Liver Microsomes T1/2 [1]: 6.77 h; Liver S-9 T1/2 [2]: 16.92 h; Behavior Effect (R)-enantiomer (Male BALBc mice): No detectable effect; behavioral effects at 100 mg/kg (Male BALBc mice): no apparent behavioral effects
COCCNC(COc1cc(C(F)(F)F)cc(C(F)(F)F)c1)c1ccccc1.Cl (stereo not drawn) [Compound 80],44.2,45.1,16.8,16.5,2.7,6.59,,None,None,133 µM,1.636,"DNap/NaL [3, 9]: 44.2; WT-Prolongation Dose [7]: None; IC50 ([5]; Example 2): 16.8 µM; DKr/NaL ([5]; ratio, Example 2): 16.5; DNaP/Kr ([5]; ratio, Example 2): 2.7"
"Cc1ccccc1OCC(C)N (stereo not drawn) [Compound 9, 1-(2-Methylphenoxy)propan-2-amine]",3.1,162,98,1.9,1.7,0.76,52,2.363,,None,1.28,WT-EAD Dose [7]: 200 µM
Cc1cccnc1OCC(O)c1ccccc1 (stereo not drawn) [Compound 21],6.1,129,100,4.7,1.3,,,None,None,None,1.23,"DNap/NaL [3, 9]: 6.1; WT-Prolongation Dose [7]: None; IC50 ([5]; Example 2): > 100 µM; DKr/NaL ([5]; ratio, Example 2): >4.7; DNaP/Kr ([5]; ratio, Example 2): 1.3"
"NC(COc1ccccc1C(F)(F)F)c1ccccc1 (stereo not drawn) [Compound 27, 1-phenyl-2-(2-(trifluoromethyl)phenoxy)ethanamine]",39.5,41.1,37.5,36.1,1.1,> 0.8,1.04,None,66 µM,66 µM,1.783,WT-Prolongation Dose [7]: None
"Cc1cccc(C)c1OCC(N)C(C)(C)C (stereo not drawn) [Compound 12, 1-(2,6-dimethylphenoxy)-3,3-dimethylbutan-2-amine]",8.3,91,49,4.5,1.9,0.648,11,>4,,22 µM,1.182,WT-EAD Dose [7]: 7.4 µM
Cl.NC(COc1ccccc1C(F)(F)F)c1ccccc1 (stereo in doubt) [(S)-82],,,,,,,,,,,,"Liver Microsomes T1/2 [1]: 6.08 h; Liver S-9, remaining after 1 hr [2]: >95% after 1 hr; Behavior Effect (S)-enantiomer (Male BALBc mice): 2/4 slightly lethargic; behavioral effects at 100 mg/kg (Male BALBc mice): Minor lethargy"
